Assay results taken from patent publication US20220144848A1, “SUBSTITUTED OXOPYRIDINE DERIVATIVES” (Bayer Aktiengesellschaft, priority 2018, published 2022).

Experiments:
human factor XIa = target: T1, human factor XIa (Homo sapiens, UniProt P03951); assay: Measurement of FXIa inhibition (fluorogenic peptide substrate Boc-Glu(OBzl)-Ala-Arg-AMC); assay type: biochemical; details: factor XIa from Kordia, 15 min preincubation, 30 min at 22° C., fluorescence; some as mean values from multiple determinations
T1 construct: purchased Kordia
Protocol: (§1) The factor XIa inhibition of the substances according to the invention is determined using a biochemical test system which utilizes the reaction of a peptidic factor XIa substrate to determine the enzymatic activity of human factor XIa. Here, factor XIa cleaves from the peptidic factor XIa substrate the C-terminal aminomethylcoumarin (AMC), the fluorescence of which is measured. The determinations are carried out in microtitre plates.
Test substances are dissolved in dimethyl sulfoxide and serially diluted in dimethyl sulfoxide (3000 μM to 0.0078 μM; resulting final concentrations in the test: 50 μM to 0.00013 μM). In each case 1 μl of the diluted substance solutions is placed into the wells of white microtitre plates from Greiner (384 wells). 20 μl of assay buffer (50 mM of Tris/HCl pH 7.4; 100 mM of sodium chloride; 5 mM of calcium chloride; 0.1% of bovine serum albumin) and 20 μl of factor XIa from Kordia (0.45 nM in assay buffer) are then added successively. After 15 min of incubation, the enzyme reaction is started by addition of 20 μl of the factor XIa substrate Boc-Glu(OBzl)-Ala-Arg-AMC dissolved in assay buffer (10 μM in assay buffer) from Bachem, the mixture is incubated at room temperature (22° C.) for 30 min and fluorescence is then measured (excitation: 360 nm, emission: 460 nm). The measured emissions of the test batches with test substance are compared to those of control batches without test substance (only dimethyl sulfoxide instead of test substance in dimethyl sulfoxide), and IC50 values are calculated from the concentration/activity relationships.

human plasma kallikrein = target: T2, human plasma kallikrein (Homo sapiens, UniProt P03952); assay: Determination of the plasma kallikrein activity (fluorogenic peptide substrate H-Pro-Phe-Arg-AMC); assay type: biochemical; details: plasma kallikrein from Kordia, 15 min preincubation, 30 min at 22° C., fluorescence; some as mean values from multiple determinations
T2 construct: purchased Kordia
Protocol: as §1, with “To determine the plasma kallikrein” for “The factor XIa”, “invention,” for “invention is determined using”, “system is used” for “system”, “plasma kallikrein” for “factor XIa”, “plasma kallikrein.” for “factor XIa.”
Test substances are dissolved in dimethyl sulfoxide and serially diluted in dimethyl sulfoxide (3000 μM to 0.0078 μM; resulting final concentrations in the test: 50 μM to 0.00013 μM). In each case 1 μl of the diluted substance solutions is placed into the wells of white microtitre plates from Greiner (384 wells). 20 μl of assay buffer (50 mM Tris/HCl pH 7.4; 100 mM sodium chloride solution; 5 mM of calcium chloride solution; 0.1% of bovine serum albumin) and 20 μl of plasma kallikrein from Kordia (0.6 nM in assay buffer) are then added successively. After 15 min of incubation, the enzyme reaction is started by addition of 20 μl of the substrate H-Pro-Phe-Arg-AMC dissolved in assay buffer (10 μM in assay buffer) from Bachem, the mixture is incubated at room temperature (22° C.) for 30 min and fluorescence is then measured (excitation: 360 nm, emission: 460 nm). The measured emissions of the test batches with test substance are compared to those of control batches without test substance (only dimethyl sulfoxide instead of test substance in dimethyl sulfoxide), and IC50 values are calculated from the concentration/activity relationships. Activity data from this test are listed in Table B below (some as mean values from multiple independent individual determinations): […]

T2 sequence (P03952 391-638 limits assumed): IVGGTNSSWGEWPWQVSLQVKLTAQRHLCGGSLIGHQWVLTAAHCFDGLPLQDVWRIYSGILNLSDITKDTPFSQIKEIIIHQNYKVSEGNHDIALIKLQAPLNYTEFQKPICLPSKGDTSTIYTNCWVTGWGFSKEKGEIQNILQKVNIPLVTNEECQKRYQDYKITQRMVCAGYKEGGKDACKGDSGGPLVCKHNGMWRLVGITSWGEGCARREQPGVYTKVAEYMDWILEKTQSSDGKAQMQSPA
T2 sequence (P03952 20-390 partner limits assumed): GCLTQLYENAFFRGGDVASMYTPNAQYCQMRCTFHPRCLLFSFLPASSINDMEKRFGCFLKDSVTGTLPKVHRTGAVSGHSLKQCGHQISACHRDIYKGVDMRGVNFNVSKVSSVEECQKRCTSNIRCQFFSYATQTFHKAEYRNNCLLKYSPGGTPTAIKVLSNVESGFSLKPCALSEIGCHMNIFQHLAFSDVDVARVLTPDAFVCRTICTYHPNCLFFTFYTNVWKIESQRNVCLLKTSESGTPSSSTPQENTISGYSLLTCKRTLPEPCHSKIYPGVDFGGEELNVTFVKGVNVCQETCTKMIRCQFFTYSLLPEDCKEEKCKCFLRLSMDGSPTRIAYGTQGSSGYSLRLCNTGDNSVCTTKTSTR
T1 sequence (P03951 388-625 limits assumed): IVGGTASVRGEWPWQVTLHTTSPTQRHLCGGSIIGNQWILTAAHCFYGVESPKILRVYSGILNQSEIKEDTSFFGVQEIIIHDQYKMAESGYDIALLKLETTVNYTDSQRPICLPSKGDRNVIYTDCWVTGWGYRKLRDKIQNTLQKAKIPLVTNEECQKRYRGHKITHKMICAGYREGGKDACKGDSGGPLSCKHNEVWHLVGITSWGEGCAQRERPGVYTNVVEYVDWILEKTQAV
T1 sequence (P03951 19-387 partner limits assumed): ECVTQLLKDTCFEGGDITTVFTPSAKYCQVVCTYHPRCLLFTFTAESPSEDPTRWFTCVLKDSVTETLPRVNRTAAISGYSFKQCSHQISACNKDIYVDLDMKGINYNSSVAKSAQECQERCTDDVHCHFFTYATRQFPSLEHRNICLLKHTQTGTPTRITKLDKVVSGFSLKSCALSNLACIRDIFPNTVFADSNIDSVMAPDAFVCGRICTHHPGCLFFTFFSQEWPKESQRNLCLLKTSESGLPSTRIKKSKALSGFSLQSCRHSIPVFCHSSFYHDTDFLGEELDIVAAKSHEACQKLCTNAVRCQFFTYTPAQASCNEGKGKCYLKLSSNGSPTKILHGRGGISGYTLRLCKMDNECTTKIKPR

SMILES	IC50 (human factor XIa) [nM]	IC50 (human plasma kallikrein) [nM]
NC(=O)c1ccc(NC(=O)C(C[C@@H]2CCCCO2)n2cc3c(cc2=O)-c2cc(Cl)ccc2CC(C(F)(F)F)OC3)cc1F (mixture of isomers) [Example 50, 4-({2-[11-Chloro-2-oxo-7-(trifluoromethyl)-7,8-dihydro-2H-[3]benzoxocino[5,6-c]pyridin-3(5H)-yl]-3-[(2S)-tetrahydro-2H-pyran-2-yl]propanoyl}amino)-2-fluorobenzamide]	14	1100
NC(=O)c1ccc(NC(=O)C(C[C@@H]2CCCCO2)n2cc3c(cc2=O)-c2cc(Cl)ccc2CC(C(F)(F)F)OC3)cn1 (mixture of isomers) [Example 52, 5-({2-[11-Chloro-2-oxo-7-(trifluoromethyl)-7,8-dihydro-2H-[3]benzoxocino[5,6-c]pyridin-3(5H)-yl]-3-[(2S)-tetrahydro-2H-pyran-2-yl]propanoyl}amino)pyridine-2-carboxamide]	6.5	790
CC1Cc2ccc(Cl)cc2-c2cc(=O)n(C(C[C@@H]3CCCCO3)C(=O)Nc3ccc(C(N)=O)c(F)c3)cc2CO1 (single isomer, unassigned) [Example 1]	11	630
C[C@@H]1Cc2ccc(Cl)cc2-c2cc(=O)n([C@@H](C[C@@H]3CCCCO3)C(=O)Nc3ccc(C(N)=O)c(F)c3)cc2CO1 (single isomer, unassigned) [Example 2]	5.5	320
C[C@@H]1Cc2ccc(Cl)cc2-c2cc(=O)n([C@@H](C[C@@H]3CCCCO3)C(=O)Nc3ccc(C(N)=O)nc3)cc2CO1 (single isomer, unassigned) [Example 4]	2.4	420
C[C@@H]1Cc2ccc(Cl)cc2-c2cc(=O)n([C@@H](C[C@@H]3CCCCO3)C(=O)Nc3ccc(C(N)=O)cc3)cc2CO1 (single isomer, unassigned) [Example 6]	1.4	140
C[C@@H]1Cc2ccc(Cl)cc2-c2cc(=O)n([C@@H](C[C@@H]3COCCO3)C(=O)Nc3ccc(C(N)=O)c(F)c3)cc2CO1 (single isomer, unassigned) [Example 8]	6.6	320
C[C@@H]1Cc2ccc(Cl)cc2-c2cc(=O)n([C@@H](C[C@@H]3COCCO3)C(=O)Nc3ccc(C(N)=O)cc3)cc2CO1 (single isomer, unassigned) [Example 10]	1.2	87
C[C@@H]1Cc2ccc(Cl)cc2-c2cc(=O)n([C@@H](C[C@@H]3COCCO3)C(=O)Nc3ccc4nn(C)nc4c3)cc2CO1 (single isomer, unassigned) [Example 12]	3.3	42
CO[C@@H](C)C[C@@H](C(=O)Nc1ccc(C(N)=O)cc1)n1cc2c(cc1=O)-c1cc(Cl)ccc1C[C@@H](C)OC2 (single isomer, unassigned) [Example 13]	4.6	205
CO[C@H](C[C@@H](C(=O)Nc1ccc(C(N)=O)cc1)n1cc2c(cc1=O)-c1cc(Cl)ccc1C[C@@H](C)OC2)C1CC1 (single isomer, unassigned) [Example 14]	3.9	220
CO[C@H](C[C@@H](C(=O)Nc1ccc(C(N)=O)cc1)n1cc2c(cc1=O)-c1cc(Cl)ccc1C[C@@H](C)OC2)C(F)F (single isomer, unassigned) [Example 15]	3.4	140
C[C@@H]1Cc2ccc(Cl)cc2-c2cc(=O)n([C@@H](CCOC(F)F)C(=O)Nc3ccc(C(N)=O)cc3)cc2CO1 (single isomer, unassigned) [Example 17]	2	72
C[C@@H]1Cc2ccc(Cl)cc2-c2cc(=O)n([C@@H](C[C@H](C)OC(F)F)C(=O)Nc3ccc(C(N)=O)cc3)cc2CO1 (single isomer, unassigned) [Example 19]	3.6	110
CC(C)OCC[C@@H](C(=O)Nc1ccc(C(N)=O)cc1)n1cc2c(cc1=O)-c1cc(Cl)ccc1C[C@@H](C)OC2 (single isomer, unassigned) [Example 20]	6.6	93
C[C@@H]1Cc2ccc(Cl)cc2-c2cc(=O)n([C@@H](CCOC(C)(C)C)C(=O)Nc3ccc(C(N)=O)c(F)c3)cc2CO1 (single isomer, unassigned) [Example 22]	19	280

Second part, the compound after the results:

IC50 (human factor XIa) [nM]	IC50 (human plasma kallikrein) [nM]	SMILES
2.8	400	NC(=O)c1ccc(NC(=O)C(C[C@@H]2CCCCO2)n2cc3c(cc2=O)-c2cc(Cl)ccc2CC(C(F)(F)F)OC3)cc1 (mixture of isomers) [Example 54, 4-({2-[11-Chloro-2-oxo-7-(trifluoromethyl)-7,8-dihydro-2H-[3]benzoxocino[5,6-c]pyridin-3(5H)-yl]-3-[(2S)-tetrahydro-2H-pyran-2-yl]propanoyl}amino)benzamide]
7.6	740	NC(=O)c1ccc(NC(=O)C(C[C@@H]2COCCO2)n2cc3c(cc2=O)-c2cc(Cl)ccc2CC(C(F)(F)F)OC3)cc1F (mixture of isomers) [Example 56, 4-({2-[11-Chloro-2-oxo-7-(trifluoromethyl)-7,8-dihydro-2H-[3]benzoxocino[5,6-c]pyridin-3(5H)-yl]-3-[(2R)-1,4-dioxan-2-yl]propanoyl}amino)-2-fluorobenzamide]
2.1	230	NC(=O)c1ccc(NC(=O)C(C[C@@H]2COCCO2)n2cc3c(cc2=O)-c2cc(Cl)ccc2CC(C(F)(F)F)OC3)cc1 (mixture of isomers) [Example 58, 4-({2-[11-Chloro-2-oxo-7-(trifluoromethyl)-7,8-dihydro-2H-[3]benzoxocino[5,6-c]pyridin-3(5H)-yl]-3-[(2R)-1,4-dioxan-2-yl]propanoyl}amino)benzamide]
26	780	COCCC(C(=O)Nc1ccc(C(N)=O)c(F)c1)n1cc2c(cc1=O)-c1cc(Cl)ccc1CC(C(F)(F)F)OC2 (mixture of isomers) [Example 60, 4-({2-[11-Chloro-2-oxo-7-(trifluoromethyl)-7,8-dihydro-2H-[3]benzoxocino[5,6-c]pyridin-3(5H)-yl]-4-methoxybutanoyl}amino)-2-fluorobenzamide]
8.1	420	COCCC(C(=O)Nc1ccc(C(N)=O)cc1)n1cc2c(cc1=O)-c1cc(Cl)ccc1CC(C(F)(F)F)OC2 (mixture of isomers) [Example 62, 4-({2-[11-Chloro-2-oxo-7-(trifluoromethyl)-7,8-dihydro-2H-[3]benzoxocino[5,6-c]pyridin-3(5H)-yl]-4-methoxybutanoyl}amino)benzamide]
42	580	COCCC(C(=O)Nc1ccn2ncnc2c1)n1cc2c(cc1=O)-c1cc(Cl)ccc1CC(C(F)(F)F)OC2 (mixture of isomers) [Example 64, 2-[11-Chloro-2-oxo-7-(trifluoromethyl)-7,8-dihydro-2H-[3]benzoxocino[5,6-c]pyridin-3(5H)-yl]-4-methoxy-N-([1,2,4]triazolo[1,5-a]pyridin-7-yl)butanamide]
5.1	320	CO[C@@H](C)CC(C(=O)Nc1ccc(C(N)=O)cc1)n1cc2c(cc1=O)-c1cc(Cl)ccc1C[C@@H](C(F)(F)F)OC2 (mixture of isomers) [Example 66, 4-({(4S)-2-[(7S)-11-Chloro-2-oxo-7-(trifluoromethyl)-7,8-dihydro-2H-[3]benzoxocino[5,6-c]pyridin-3(5H)-yl]-4-methoxypentanoyl}amino)benzamide]
